From ChEMBL document CHEMBL5214974, “The design of protozoan phosphoribosyltransferase inhibitors containing non-charged phosphate mimic residues” (Bioorg Med Chem, 2022)

Legend:
[1] = Inhibition of N-terminal His6-tagged Trypanosoma cruzi HGXPRT isoform B expressed in Escherichia coli BL21(DE3) cells assessed as inhibition of IMP formation using hypoxanthine as substrate by spectrophotometric assay
[2] = Inhibition of N-terminal His6-tagged Trypanosoma cruzi HGPRT isoform C expressed in Escherichia coli C43(DE3) cells assessed as inhibition of IMP formation using hypoxanthine as substrate by spectrophotometric assay
[3] = Inhibition of N-terminal His6-tagged HGXPRT expressed in Escherichia coli BL21 cells assessed as reduction in NADH absorbance using hypoxanthine as substrate by IMPDH coupled assay; set-up: species or system Plasmodium falciparum

| Compound | Ki [1] | Ki [2] | Ki [3] |
| --- | --- | --- | --- |
| O=C1N[C@@H]([C@@H](CO)NCc2c[nH]c3c(O)ncnc23)CO1 | > 140 µM | > 130 µM | > 20 µM |
| O=c1c(O)c(NC[C@@H](CO)NCc2c[nH]c3c(O)ncnc23)c1=O | > 140 µM | > 130 µM | > 20 µM |
| O=C1CN(C[C@@H](CO)NCc2c[nH]c3c(O)nc(O)nc23)S(=O)(=O)N1 | > 140 µM | > 130 µM | > 20 µM |
| O=C1CN(CC[C@@H](CO)NCc2c[nH]c3c(O)ncnc23)S(=O)(=O)N1 | > 140 µM | > 130 µM | > 20 µM |
| NS(=O)(=O)NC[C@@H](CO)NCc1c[nH]c2c(O)nc(O)nc12 | > 140 µM | > 130 µM | > 20 µM |
| O=C1CN(C[C@@H](CO)NCc2c[nH]c3c(O)ncnc23)S(=O)(=O)N1 | > 140 µM | > 130 µM | > 20 µM |
| NS(=O)(=O)NC[C@@H](CO)NCc1c[nH]c2c(O)ncnc12 | > 140 µM | > 130 µM | > 20 µM |
| Nc1nc(O)c2[nH]cc(CN[C@H](CO)CCP(=O)(O)O)c2n1 | – | 0.03 µM | 0.0005 µM |
| O=c1[nH]cnc2c(CN[C@H](CO)CCP(=O)(O)O)c[nH]c12 | – | 0.011 µM | 0.00065 µM |
| O=C1CN(CC[C@@H](CO)NCc2c[nH]c3c(O)nc(O)nc23)S(=O)(=O)N1 | > 140 µM | > 130 µM | > 20 µM |
| O=P(O)(O)CC[C@@H](CO)NCc1c[nH]c2c(O)nc(O)nc12 | – | 18 µM | 8 µM |
| O=c1c(O)c(NCC[C@@H](CO)NCc2c[nH]c3c(O)ncnc23)c1=O | > 140 µM | > 130 µM | > 20 µM |
| O=c1cc([C@@H](CO)NCc2c[nH]c3c(O)ncnc23)o[nH]1 | > 140 µM | > 130 µM | > 20 µM |
